Measured values from patent US20240360142A1, “Multitargeting Agents For The Potential Treatment of Dementia With Lewy Bodies, Parkinson's Disease, and Alzheimer Disease With Lewy Bodies” (Duquesne University of The Holy Spirit, priority 2023, published 2024).
Converted amounts (≈) assume the structure as drawn. “And” between values parts separate entries of the source, which are not always exact repeats. Identical values can stand only once. “Also recorded” adds a separate entry of the source. Like-named read-outs stand apart in the source and are kept apart here.

Experiments:
[1] = target: ABL1 (Homo sapiens, UniProt P00519); assay: Kinase inhibition, ABL1; assay type: biochemical
Source text: (§1) Total inhibition of these kinases would be detrimental to neuronal viability.

[2] = target: CSNK1A1 (CK1 alpha 1) (Homo sapiens, UniProt P48729); assay: Kinase inhibition, CSNK1A1; assay type: biochemical
Source text: as §1

[3] = target: CSNK2A2 (CK2 alpha 2) (Homo sapiens, UniProt P19784); assay: Kinase inhibition, CSNK2A2; assay type: biochemical; details: ATP Km app 46 μM
Source text: as §1

[4] = target: DYRK1A (Homo sapiens, UniProt Q13627); assay: Kinase inhibition, DYRK1A; assay type: biochemical; details: ATP Km app 99.7 μM
Source text: as §1

[5] = target: FYN (Homo sapiens, UniProt P06241); assay: Kinase inhibition, FYN; assay type: biochemical
Source text: as §1

[6] = target: GRK5 (Homo sapiens, UniProt P34947); assay: Kinase inhibition, GRK5; assay type: biochemical; details: ATP Km app 3 μM
Source text: as §1

[7] = target: GRK6 (Homo sapiens, UniProt P43250); assay: Kinase inhibition, GRK6; assay type: biochemical; details: ATP Km app 11.7 μM
Source text: as §1

[8] = target: GSK3β (Homo sapiens, UniProt P49841); assay: Kinase inhibition, GSK3β; assay type: biochemical
Source text: as §1

[9] = target: LARK2 (Homo sapiens, UniProt Q5S007); assay: Kinase inhibition, LARK2; assay type: biochemical; also: ATP Km app 70 µM
Source text: as §1

[10] = target: PLK2 (Homo sapiens, UniProt Q9NYY3); assay: Kinase inhibition, PLK2; assay type: biochemical; details: ATP Km app 29.6 μM
Source text: as §1

[11] = Solubility; assay type: physicochemical; details: simulated gastric fluid; pH 2.0
[12] = Protein Binding, Human Plasma; assay type: in vitro ADME; details: read-out: Protein Binding % Bound (converted)
[13] = Protein Binding, Mouse Plasma; assay type: in vitro ADME; details: read-out: Protein Binding % Bound (converted)
[14] = Brain Tissue Binding, Mouse; assay type: in vitro ADME; details: read-out: Brain Tissue Binding % Bound (converted)
[15] = Metabolic Stability, Human; assay type: in vitro ADME; details: for half-life: read-out: Metabolic Stability T1/2
[16] = Metabolic Stability, Mouse; assay type: in vitro ADME; details: for half-life: read-out: Metabolic Stability T1/2
[17] = Permeability, MDC-MDR1; assay type: in vitro ADME; details: MDCK-MDR1
[18] = in vivo; set-up: species or system male CD-1 mice; details: for clinical symptoms during pharmacokinetic work: mouse
Description: Briefly, each compound was administered through intravenous and oral routes, and plasma samplings were collected from 2 to 24 hours post-injection for analyses by high-performance liquid chromatography and mass spectrometry (Prominence (Degasser DGU-20A5R(C), Serial NO. L20705619752 IX; Liquid Chromatograph LC-30AD Serial NO. L20555611120 AE and L20555611116 AE; Communications Bus Module CBM-20A, Serial NO. L20235635001 CD, Auto SIL-20AC HT, Serial No. L20355305356 AE; Rack changer II, Serial No. L20585300757 SS; AB Sciex Triple Quan 5500 LC/MS/MS instrument (Serial NO. EF20711807)). A HALO 90A, C18 2.7 μm 2.1×50 mm USKL004340 column was used and the mobile phase was 5 or 95% acetonitrile in water with 0.1% formic acid (see Supplemental Material).

[19] = target: T1, tubulin purified from porcine brain (Sus scrofa, UniProt P02550+P02554); details: cited from earlier work
T1 construct: in vitro assembly of tubulin purified from porcine brain; from tissue; host or cells: porcine brain

[20] = test system: primary hippocampal cultures; assay: Viability / toxicity in primary hippocampal cultures; assay type: cell-based
Source text: Thresholds were kept uniform across individual experiments.

[21] = test system: βIII-tubulin+ structures in primary hippocampal neurons; assay: Nocodazole shock treatment followed by cold methanol fixation, βIII-tubulin staining; assay type: cell-based, rat; details: AG161-47 8 μM; nocodazole 50 nM and 5 μM
Description: For cold methanol fixation, primary hippocampal cultures plated on glass slides were exposed to ice-cold methanol (−20° C.) for 15 minutes on DIV 4. […] After immunostaining, coverslips were applied using FluoroMount-G (0100-01, SouthernBiotech).
The microtubule destabilizer/depolymerizer and kinase inhibitor nocodazole blocks AG161-47 activity: We qualitatively compared AG161-47 with the established microtubule destabilizer/depolymerizer nocodazole (Baas & Black, 1990; Baas et al., 2016; Bates & Eastman, 2017; Kapellos et al., 2016; Koenigsknecht & Landreth, 2004; Kuhn, 1998; Mandrekar et al., 2009; Nakayama et al., 2012; Park et al., 2012), using a nocodazole shock treatment followed by cold methanol fixation in primary hippocampal cultures, as previously described (Ferreira et al., 2018; Warren et al., 2020). Primary hippocampal cultures were treated with vehicle or AG161-47 at 8 μM or nocodazole at 50 nM and 5 μM.

[22] = test system: male CD-1 mice infused with preformed α-synuclein fibrils; assay: In vivo model of limbic-centered Lewy body disease (fibril infusion in OB/AON, daily tablets for six weeks); set-up: species or system mouse
[23] = test system: microtubules in HeLa cells; details: cited from earlier work
[24] = test system: α-tubulin (detyrosinated, tyrosinated, acetylated); assay: Post-translational markers of microtubule stability in primary hippocampal cultures (immunoblotting); assay type: cell-based, rat; details: 5 nM nocodazole, in the presence of fibrils

ABL1, sequence (P00519 whole entry): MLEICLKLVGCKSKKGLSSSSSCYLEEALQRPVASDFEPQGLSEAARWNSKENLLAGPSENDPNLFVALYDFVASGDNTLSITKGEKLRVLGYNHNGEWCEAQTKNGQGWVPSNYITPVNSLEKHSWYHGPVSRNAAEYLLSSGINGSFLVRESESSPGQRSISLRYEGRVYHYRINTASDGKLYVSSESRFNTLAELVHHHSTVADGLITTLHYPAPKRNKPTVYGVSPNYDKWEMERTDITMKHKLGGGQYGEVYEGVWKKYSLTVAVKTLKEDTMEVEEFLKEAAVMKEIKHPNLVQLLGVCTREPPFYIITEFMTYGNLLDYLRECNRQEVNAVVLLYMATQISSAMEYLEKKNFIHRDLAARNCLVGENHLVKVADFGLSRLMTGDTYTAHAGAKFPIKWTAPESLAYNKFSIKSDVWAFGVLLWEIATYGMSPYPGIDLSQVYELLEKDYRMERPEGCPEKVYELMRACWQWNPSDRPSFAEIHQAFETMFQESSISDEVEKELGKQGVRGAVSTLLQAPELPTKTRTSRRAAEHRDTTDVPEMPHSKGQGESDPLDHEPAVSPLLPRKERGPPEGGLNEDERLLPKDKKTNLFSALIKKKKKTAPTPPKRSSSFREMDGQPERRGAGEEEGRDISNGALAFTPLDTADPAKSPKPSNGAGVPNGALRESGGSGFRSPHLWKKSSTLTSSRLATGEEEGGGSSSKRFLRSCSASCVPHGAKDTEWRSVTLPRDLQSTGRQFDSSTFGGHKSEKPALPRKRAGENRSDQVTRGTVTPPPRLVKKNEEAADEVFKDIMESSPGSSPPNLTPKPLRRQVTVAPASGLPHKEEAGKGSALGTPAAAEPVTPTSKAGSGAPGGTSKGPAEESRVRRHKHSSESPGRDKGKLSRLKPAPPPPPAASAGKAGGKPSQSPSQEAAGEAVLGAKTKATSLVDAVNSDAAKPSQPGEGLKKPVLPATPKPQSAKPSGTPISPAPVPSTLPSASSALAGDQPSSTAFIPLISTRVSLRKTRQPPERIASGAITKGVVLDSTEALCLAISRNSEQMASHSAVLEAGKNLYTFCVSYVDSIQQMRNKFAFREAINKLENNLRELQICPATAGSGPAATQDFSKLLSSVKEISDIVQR
FYN, sequence (P06241 whole entry): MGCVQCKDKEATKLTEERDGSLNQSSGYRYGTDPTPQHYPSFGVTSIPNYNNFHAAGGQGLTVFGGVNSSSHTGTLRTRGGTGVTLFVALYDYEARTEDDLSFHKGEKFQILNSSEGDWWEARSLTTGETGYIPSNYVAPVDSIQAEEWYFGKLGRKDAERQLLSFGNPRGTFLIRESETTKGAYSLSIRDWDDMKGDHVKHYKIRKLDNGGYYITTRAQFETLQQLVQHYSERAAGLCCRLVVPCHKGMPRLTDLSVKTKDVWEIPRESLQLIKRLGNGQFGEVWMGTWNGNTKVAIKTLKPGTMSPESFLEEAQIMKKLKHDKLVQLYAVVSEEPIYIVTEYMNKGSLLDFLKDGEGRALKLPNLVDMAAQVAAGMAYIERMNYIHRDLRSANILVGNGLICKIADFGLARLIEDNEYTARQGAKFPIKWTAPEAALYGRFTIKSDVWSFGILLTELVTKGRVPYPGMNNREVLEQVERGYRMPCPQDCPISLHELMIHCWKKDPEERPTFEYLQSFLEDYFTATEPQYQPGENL
CSNK1A1 (CK1 alpha 1), sequence (P48729 whole entry): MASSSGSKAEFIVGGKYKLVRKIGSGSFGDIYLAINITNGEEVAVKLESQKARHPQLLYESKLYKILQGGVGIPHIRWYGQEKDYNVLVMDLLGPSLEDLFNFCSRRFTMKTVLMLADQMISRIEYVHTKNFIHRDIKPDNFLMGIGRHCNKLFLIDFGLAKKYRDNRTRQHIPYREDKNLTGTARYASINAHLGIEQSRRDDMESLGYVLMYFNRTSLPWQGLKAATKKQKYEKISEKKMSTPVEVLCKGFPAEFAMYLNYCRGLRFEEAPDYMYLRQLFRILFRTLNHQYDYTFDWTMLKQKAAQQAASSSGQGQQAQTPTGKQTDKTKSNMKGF
T1 sequence (P02550 whole entry): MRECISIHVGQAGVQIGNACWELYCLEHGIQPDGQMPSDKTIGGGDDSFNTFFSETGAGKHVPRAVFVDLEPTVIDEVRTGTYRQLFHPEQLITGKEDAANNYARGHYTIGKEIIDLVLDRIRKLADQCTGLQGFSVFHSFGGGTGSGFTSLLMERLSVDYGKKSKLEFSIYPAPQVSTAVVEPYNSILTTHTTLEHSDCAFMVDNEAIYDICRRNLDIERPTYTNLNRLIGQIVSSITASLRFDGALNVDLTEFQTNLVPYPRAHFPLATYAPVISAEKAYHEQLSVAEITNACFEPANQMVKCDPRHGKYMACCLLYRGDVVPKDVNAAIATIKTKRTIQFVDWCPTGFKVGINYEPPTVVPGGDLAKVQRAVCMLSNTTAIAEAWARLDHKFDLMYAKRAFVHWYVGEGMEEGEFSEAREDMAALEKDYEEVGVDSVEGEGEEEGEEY
T1 sequence (P02554 whole entry): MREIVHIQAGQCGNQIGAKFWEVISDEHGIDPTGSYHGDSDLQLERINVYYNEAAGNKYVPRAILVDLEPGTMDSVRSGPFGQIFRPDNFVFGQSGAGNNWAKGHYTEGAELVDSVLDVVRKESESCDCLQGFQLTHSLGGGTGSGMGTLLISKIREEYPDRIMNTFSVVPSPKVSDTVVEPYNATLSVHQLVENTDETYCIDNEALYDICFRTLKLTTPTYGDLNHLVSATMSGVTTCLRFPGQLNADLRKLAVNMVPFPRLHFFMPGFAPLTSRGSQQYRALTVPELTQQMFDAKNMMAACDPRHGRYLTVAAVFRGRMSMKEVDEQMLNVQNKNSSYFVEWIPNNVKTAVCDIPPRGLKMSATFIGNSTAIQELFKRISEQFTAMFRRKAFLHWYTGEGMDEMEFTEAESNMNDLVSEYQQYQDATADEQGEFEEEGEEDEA
GSK3β, sequence (P49841 whole entry): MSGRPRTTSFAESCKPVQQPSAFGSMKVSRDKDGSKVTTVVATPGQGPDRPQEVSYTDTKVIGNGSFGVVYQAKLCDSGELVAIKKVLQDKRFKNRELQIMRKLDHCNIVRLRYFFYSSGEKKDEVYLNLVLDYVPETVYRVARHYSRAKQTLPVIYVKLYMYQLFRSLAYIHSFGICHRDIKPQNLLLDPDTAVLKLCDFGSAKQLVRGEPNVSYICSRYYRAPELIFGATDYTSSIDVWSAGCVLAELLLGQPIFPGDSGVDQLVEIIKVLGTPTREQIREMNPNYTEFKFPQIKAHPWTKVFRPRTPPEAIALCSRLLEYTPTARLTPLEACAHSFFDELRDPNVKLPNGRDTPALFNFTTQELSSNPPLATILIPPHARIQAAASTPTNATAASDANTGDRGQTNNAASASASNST
PLK2, sequence (Q9NYY3 whole entry): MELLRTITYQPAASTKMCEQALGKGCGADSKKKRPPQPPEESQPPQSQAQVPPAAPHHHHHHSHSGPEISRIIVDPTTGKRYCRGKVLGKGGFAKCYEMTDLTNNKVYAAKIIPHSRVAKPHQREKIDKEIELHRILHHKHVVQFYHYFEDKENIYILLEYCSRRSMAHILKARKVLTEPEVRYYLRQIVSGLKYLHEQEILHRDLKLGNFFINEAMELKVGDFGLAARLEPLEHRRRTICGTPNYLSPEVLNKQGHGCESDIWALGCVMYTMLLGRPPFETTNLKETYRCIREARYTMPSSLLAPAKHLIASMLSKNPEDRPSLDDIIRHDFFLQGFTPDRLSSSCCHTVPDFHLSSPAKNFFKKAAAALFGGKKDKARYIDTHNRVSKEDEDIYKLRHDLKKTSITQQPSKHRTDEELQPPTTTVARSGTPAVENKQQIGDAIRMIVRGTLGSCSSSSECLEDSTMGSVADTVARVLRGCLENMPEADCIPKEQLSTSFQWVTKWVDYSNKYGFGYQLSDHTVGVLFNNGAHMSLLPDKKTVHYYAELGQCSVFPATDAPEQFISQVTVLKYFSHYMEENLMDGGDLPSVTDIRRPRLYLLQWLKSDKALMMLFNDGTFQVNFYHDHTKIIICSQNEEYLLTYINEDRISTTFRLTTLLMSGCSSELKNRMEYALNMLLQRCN
CSNK2A2 (CK2 alpha 2), sequence (P19784 whole entry): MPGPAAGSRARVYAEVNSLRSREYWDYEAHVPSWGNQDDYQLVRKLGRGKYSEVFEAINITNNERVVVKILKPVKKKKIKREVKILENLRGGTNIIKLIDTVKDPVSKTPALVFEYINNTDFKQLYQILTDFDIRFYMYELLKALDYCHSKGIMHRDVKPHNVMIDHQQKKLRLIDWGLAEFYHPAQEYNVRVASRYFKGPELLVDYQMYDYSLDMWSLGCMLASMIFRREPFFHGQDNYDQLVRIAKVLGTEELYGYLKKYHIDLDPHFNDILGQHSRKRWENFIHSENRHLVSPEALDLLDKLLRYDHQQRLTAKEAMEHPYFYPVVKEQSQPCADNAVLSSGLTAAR
GRK6, sequence (P43250 whole entry): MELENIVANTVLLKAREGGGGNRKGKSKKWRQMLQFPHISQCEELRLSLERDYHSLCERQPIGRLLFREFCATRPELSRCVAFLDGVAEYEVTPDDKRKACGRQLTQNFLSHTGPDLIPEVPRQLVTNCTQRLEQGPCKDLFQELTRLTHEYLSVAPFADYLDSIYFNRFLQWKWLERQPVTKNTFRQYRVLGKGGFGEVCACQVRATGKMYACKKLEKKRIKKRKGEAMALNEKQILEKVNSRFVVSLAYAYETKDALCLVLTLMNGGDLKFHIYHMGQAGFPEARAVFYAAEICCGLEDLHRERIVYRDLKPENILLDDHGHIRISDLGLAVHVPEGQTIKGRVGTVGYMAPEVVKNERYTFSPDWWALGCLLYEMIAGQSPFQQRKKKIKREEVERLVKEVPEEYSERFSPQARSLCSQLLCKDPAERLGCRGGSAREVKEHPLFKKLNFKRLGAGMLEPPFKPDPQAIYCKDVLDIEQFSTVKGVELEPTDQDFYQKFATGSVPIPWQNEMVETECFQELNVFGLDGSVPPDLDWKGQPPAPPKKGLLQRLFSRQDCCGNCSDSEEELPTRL

Compound: Cc1ccc(N(C)c2nc(N)nc3[nH]c4cccc(Cl)c4c23)cc1 [AGN5]
- IC50 ([1]; ATP Km app 12 μM): 26.1 nM
- IC50 [2]: 498 nM
- IC50 [3]: > 1110 nM
- IC50 [4]: 249 nM
- IC50 ([5]; ATP Km app 85 μM): 169 nM
- IC50 [6]: > 370 nM
- IC50 [7]: 64.3 nM
- IC50 [8]: 3.12 nM
- IC50 [9]: 20 nM
- IC50 [10]: 16.7 nM
- solubility [11]: 1.75 µM (≈ 0.591 µg/mL)
- fraction unbound [12]: 0.0022
- fraction unbound [13]: < 0.0002
- fraction unbound [14]: 0.0004
- CLint scaled [15]: 44.7 mL/min/kg
- half-life [15]: 38.9 min
- CLint scaled [16]: 602 mL/min/kg
- half-life [16]: 10.1 min
- Papp A→B [17]: 1.74 ×10⁻⁶ cm/s
- Papp B→A [17]: 2.98 ×10⁻⁶ cm/s
- Kp ([18]; male, CD-1, mouse): 5.99
- Kp uu at 2 h ([18]; male, CD-1, mouse): 6
- C0 ([18]; male, CD-1, mouse, iv, 1 mg/kg): 811 ng/mL
- CIobs ([18]; male, CD-1, mouse, iv, 1 mg/kg): 49.5 mL/min/kg
- Vss_obs ([18]; male, CD-1, mouse, iv, 1 mg/kg): 3.24 L/kg
- half-life ([18]; male, CD-1, mouse, iv, 1 mg/kg): 93 min
- AUC(0-t) ([18]; male, CD-1, mouse, po, 1 mg/kg): 19.2 ng·h/mL
- Cmax ([18]; male, CD-1, mouse, po, 1 mg/kg): 14.7 ng/mL and 44 nM
- F ([18]; male, CD-1, mouse, po, 1 mg/kg): 6.35%
- Tmax ([18]; male, CD-1, mouse, po, 1 mg/kg): 30 min
- half-life ([18]; male, CD-1, mouse, po, 1 mg/kg): 46.8 min
- clinical symptoms during pharmacokinetic work [18]: no abnormal clinical symptoms were observed
- in vitro assembly of porcine brain tubulin [19]: accelerate the temporal kinetics of porcine brain tubulin in vitro assembly

Compound: CN(c1ccccc1)c1nc(N)nc2[nH]c3cccc(Cl)c3c12 [AGN11]
- IC50 ([1]; ATP Km app 12 μM): 7.96 nM
- IC50 [2]: 30.5 nM
- IC50 [3]: > 1110 nM
- IC50 [4]: 8.15 nM
- IC50 ([5]; ATP Km app 85 μM): 888 nM
- IC50 [6]: > 1110 nM
- IC50 [7]: 614 nM
- IC50 [8]: 8.12 nM
- IC50 [9]: 7.03 nM
- IC50 [10]: > 370 nM
- solubility [11]: 0.71 µM (≈ 0.23 µg/mL)
- fraction unbound [12]: 0.004
- fraction unbound [13]: 0.0022
- fraction unbound [14]: 0.0008
- CLint scaled [15]: 45.6 mL/min/kg
- half-life [15]: 38.1 min
- CLint scaled [16]: 602 mL/min/kg
- half-life [16]: 10.1 min
- Papp A→B [17]: 4.97 ×10⁻⁶ cm/s
- Papp B→A [17]: 4.16 ×10⁻⁶ cm/s
- Kp ([18]; male, CD-1, mouse): 4.5
- Kp uu at 2 h ([18]; male, CD-1, mouse): 4.4
- C0 ([18]; male, CD-1, mouse, iv, 1 mg/kg): 529 ng/mL
- CIobs ([18]; male, CD-1, mouse, iv, 1 mg/kg): 120 mL/min/kg
- Vss_obs ([18]; male, CD-1, mouse, iv, 1 mg/kg): 2.41 L/kg
- half-life ([18]; male, CD-1, mouse, iv, 1 mg/kg): 19.4 min
- AUC(0-t) ([18]; male, CD-1, mouse, po, 1 mg/kg): 11 ng·h/mL
- F ([18]; male, CD-1, mouse, po, 1 mg/kg): 8.38%
- Tmax ([18]; male, CD-1, mouse, po, 1 mg/kg): 25 min
- half-life ([18]; male, CD-1, mouse, po, 1 mg/kg): 36 min
- clinical symptoms during pharmacokinetic work [18]: no abnormal clinical symptoms were observed
- fragmented and condensed Hoechst+ nuclei ([20]; 8 μM, fibril-treated group): reduced fragmented and condensed Hoechst^+ nuclei
- impact on fragmented/condensed cell counts with nocodazole co-treatment ([20]; fibril groups, nocodazole 1 and 5 nM): prevented by both concentrations of nocodazole
- appearance of βIII-tubulin+ structures after cold methanol fixation [21]: did not alter the appearance of βIII-tubulin^+ structures
- correlation between insoluble α-synuclein and locomotor speed ([22]; 5 mg/kg): uncoupled the inverse correlation between insoluble α-synuclein and locomotor speed
- hyperphosphorylation (pSer129) of insoluble α-synuclein, piriform cortex and amygdala ([22]; 5 mg/kg, six weeks, listed as AG161-47): modestly lowered; also recorded: reduced the hyperphosphorylation of insoluble α-synuclein
- effect on Lewy-related pathology ([22]; 10 mg/kg, six weeks): too high to exert beneficial effects
- bodyweight ([22]; daily tablets 5 or 10 mg/kg, six weeks, compared to placebo): No loss of bodyweight
- acetylated, detyrosinated, or tyrosinated α-tubulin levels in whole-fraction OB/AON ([22]; immunoblotting, six weeks): virtually no net effect
- α-synucleinopathic inclusion counts ([22]; piriform cortex sections, six weeks): does not affect α-synucleinopathic inclusion counts
- locomotor activity in an open arena ([22]; six weeks after fibril infusions): reduced locomotor activity
- other behavior measures (novel odor habituation, Y-maze, marble burying) ([22]; six weeks of daily tablets): no impact
- in vitro assembly of porcine brain tubulin [19]: accelerated and amplified the net in vitro assembly of tubulin
- microtubule effects in HeLa cells [23]: elicited both stabilization and relaxation of microtubules

Compound: Brc1c(Br)c(Br)c2n[nH]nc2c1Br [TBB, reference compound]
- IC50 ([2]; representative value, ATP bin 5 μM, read-out: IC50 (nM) of Std inhibitor, CSNK1A1 (CK1 alpha 1)): 12600 nM

Compound: COc1cc2ncnc(Nc3cccc(Cl)c3)c2cc1OC [Tyrphostin AG1478, reference compound]
- IC50 ([1]; representative value, ATP bin 10 μM, read-out: IC50 (nM) of Std inhibitor, ABL1): 326 nM
- IC50 ([5]; representative value, ATP bin 75 μM, read-out: IC50 (nM) of Std inhibitor, FYN): 5300 nM

Compound: COC(=O)Nc1nc2ccc(C(=O)c3cccs3)cc2[nH]1 [nocodazole]
- number of viable Hoechst+ cells ([20]; fibrils, escalating AG161-47 up to 8 μM, nocodazole 1 and 5 nM, 10 days): no statistically significant changes
- toxicity to primary hippocampal cultures [20]: also found to be toxic
- acetylated (stable) α-tubulin levels [24]: raised the levels of acetylated (stable) α-tubulin
- appearance of βIII-tubulin+ structures after cold methanol fixation [21]: neurotoxicity and severe beading of axonal microtubules

Compound: epothilone
- toxicity to primary hippocampal cultures [20]: toxic to primary hippocampal cultures at nanomolar concentrations; also recorded: also found to be toxic
